This is an account of results in patent US7582760B2, “Benzimidazolone and dihydroindolone derivatives and uses thereof” (Roche Palo Alto LLC, priority 2005, dated 2009).

Where a name gives a salt, the structure may show the parent alone.

The target of data set [1] is T1, recombinant human 5-HT2A receptor (Homo sapiens, UniProt P28223).
T1 construct: expressed in transfected cells; membranes
As to the kind of experiment: Radioligand binding, competition for [3H]Ketanserin in CHO-K1 cell membranes. The settings on record: [3H]Ketanserin displacement, read-out: pKi for the 5-HT2A receptor (converted). On the procedure: (§1) The binding activity of compounds of this invention in vitro was determined as follows. Duplicate determinations of 5-HT6 ligand affinity were made by competing for binding of [^3H]LSD in cell membranes derived from HEK293 cells stably expressing recombinant human 5-HT6 receptor. Duplicate determinations of 5-HT2A ligand affinity were made by competing for binding of [^3H]Ketanserin (3-(2-(4-(4-fluorobenzoyl)piperidinol)ethyl)-2,4(1H,3H)-quinazolinedione) in cell membranes derived from CHO-K^1 cells stably expressing recombinant human 5-HT2A receptor. Membranes were prepared from HEK 293 cell lines by the method described by Monsma et al., Molecular Pharmacology, Vol. 43 pp. 320-327 (1993), and from CHO-K1 cell lines as described by Bonhaus et al., Br J. Pharmacol. June; 115(4):622-8 (1995).
(§2) For estimation of affinity at the 5-HT6 receptor, all determinations were made in assay buffer containing 50 mM Tris-HCl, 10 mM MgSO4, 0.5 mM EDTA, 1 mM ascorbic acid, pH 7.4 at 37° C., in a 250 microliter reaction volume. […]
(§3) Assay tubes containing [^3H] […] LSD or [^3H]Ketanserin were determined as radioactive counts per minute using Packard TopCount.
(§4) Displacement of [^3H]LSD or [^3H]Ketanserin from the binding sites was quantified by fitting concentration-binding data to a 4-parameter logistic equation: […]

In data set [2] the target is T2, recombinant human 5-HT6 receptor (Homo sapiens, UniProt P50406).
T2 construct: expressed in transfected cells; membranes
Briefly: Radioligand binding, competition for [3H]LSD in HEK293 cell membranes. Particulars: receptor not printed for this value in the sentence; radioligand binding of Example 13. The protocol:
as §1, §2, §3, §4

T1 sequence (P28223 whole entry): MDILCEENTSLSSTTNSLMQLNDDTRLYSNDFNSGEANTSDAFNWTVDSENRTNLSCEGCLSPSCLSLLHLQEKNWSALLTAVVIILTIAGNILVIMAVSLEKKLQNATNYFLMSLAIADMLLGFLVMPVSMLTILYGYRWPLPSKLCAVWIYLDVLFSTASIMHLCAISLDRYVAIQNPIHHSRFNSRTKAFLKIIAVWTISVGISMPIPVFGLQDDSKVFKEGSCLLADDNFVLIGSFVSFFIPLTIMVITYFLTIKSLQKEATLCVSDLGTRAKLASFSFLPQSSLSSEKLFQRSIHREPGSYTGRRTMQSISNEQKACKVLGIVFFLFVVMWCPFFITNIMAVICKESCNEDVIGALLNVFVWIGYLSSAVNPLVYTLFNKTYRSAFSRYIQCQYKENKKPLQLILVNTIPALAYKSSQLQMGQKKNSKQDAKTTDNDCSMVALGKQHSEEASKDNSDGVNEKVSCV
T2 sequence (P50406 whole entry): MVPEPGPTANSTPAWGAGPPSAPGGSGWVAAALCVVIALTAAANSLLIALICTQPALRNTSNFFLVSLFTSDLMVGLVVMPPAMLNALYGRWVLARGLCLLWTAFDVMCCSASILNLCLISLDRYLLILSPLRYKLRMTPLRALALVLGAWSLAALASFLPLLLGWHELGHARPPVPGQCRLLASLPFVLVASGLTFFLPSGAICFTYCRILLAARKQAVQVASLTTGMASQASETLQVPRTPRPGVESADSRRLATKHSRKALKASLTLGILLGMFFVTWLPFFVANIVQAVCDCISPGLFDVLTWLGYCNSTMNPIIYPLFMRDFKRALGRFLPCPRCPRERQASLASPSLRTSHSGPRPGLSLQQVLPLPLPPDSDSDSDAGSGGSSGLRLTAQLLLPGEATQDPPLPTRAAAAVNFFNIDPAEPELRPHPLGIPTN

Regarding `O=c1[nH]c2c(OC3CNC3)cccc2n1Cc1ccccc1`, the melting point (usually the temperature, or range, at which the solid turns liquid) was 181 to 184 °C.

Consider `CNCCOc1cccc2c1n(C)c(=O)n2Cc1ccccc1` (as salt: hydrochloride), for which the melting point is 203.8 to 205.1 °C. `O=c1[nH]c2c(OCC3CNC3)cccc2n1Cc1ccccc1` (as salt: hydrochloride) had a melting point of 210 to 216.6 °C. Regarding `O=C1Cc2c(N3CCNCC3)cccc2N1Cc1ccc(F)c(F)c1` [1-(3,4-Difluoro-benzyl)-4-piperazin-1-yl-1,3-dihydro-indol-2-one], the Ki in data set [1] was roughly 0.331 nM. Regarding `O=c1[nH]c2c(N3CCNCC3)ccc(Cl)c2n1Cc1cccc(F)c1` [7-Chloro-1-(3-fluoro-benzyl)-4-piperazin-1-yl-1,3-dihydro-benzoimidazol-2-one], in data set [2], the Ki was roughly 0.331 nM.
